Source: ChEMBL document CHEMBL3044572, “Discovery of 2-(4-cyano-3-trifluoromethylphenyl amino)-4-(4-quinazolinyloxy)-6-piperazinyl(piperidinyl)-s-triazines as potential antibacterial agents” (2012)
Values after ≈ are worked out from the molar mass of the structure shown. Active and inactive are the calls of the source. The rule behind the calls is not given here.

Experiments:
[1] = tested on: Candida albicans; test: Antimicrobial activity against Candida albicans MTCC 183 by agar streak dilution method; assay type: functional
[2] = tested on: Staphylococcus aureus; test: Antimicrobial activity against Staphylococcus aureus MTCC 96 by paper-disk diffusion method; assay type: functional
[3] = tested on: Salmonella typhi; test: Antimicrobial activity against Salmonella enterica subsp. enterica serovar Typhi MTCC 733 by paper disk diffusion method; assay type: functional
[4] = tested on: Pseudomonas aeruginosa; test: Antimicrobial activity against Pseudomonas aeruginosa MTCC 741 by agar streak dilution method; assay type: functional
[5] = tested on: Aspergillus niger; test: Antimicrobial activity against Aspergillus niger MTCC 282 by paper-disk diffusion method; assay type: functional
[6] = tested on: Proteus vulgaris; test: Antimicrobial activity against Proteus vulgaris MTCC 1771 by agar streak dilution method; assay type: functional
[7] = tested on: Klebsiella pneumoniae; test: Antimicrobial activity against Klebsiella pneumoniae MTCC 109 by paper disk diffusion method; assay type: functional
[8] = tested on: Proteus vulgaris; test: Antimicrobial activity against Proteus vulgaris MTCC 1771 by paper disk diffusion method; assay type: functional
[9] = tested on: Aspergillus fumigatus; test: Antimicrobial activity against Aspergillus fumigatus MTCC 343 by paper-disk diffusion method; assay type: functional
[10] = tested on: Mycobacterium tuberculosis; test: Antimicrobial activity against Mycobacterium tuberculosis H37Rv by BACTEC MGIT method; assay type: functional; settings: Mycobacterium tuberculosis, H37Rv
[11] = tested on: Klebsiella pneumoniae; test: Antimicrobial activity against Klebsiella pneumoniae MTCC 109 by agar streak dilution method; assay type: functional
[12] = tested on: Mycobacterium tuberculosis; test: Antimicrobial activity against Mycobacterium tuberculosis H37Rv at 100 ug/ml by BACTEC MGIT method; assay type: functional, organism-based
[13] = tested on: Aspergillus clavatus; test: Antimicrobial activity against Aspergillus clavatus MTCC 1323 by paper disk diffusion method; assay type: functional
[14] = tested on: Bacillus cereus; test: Antimicrobial activity against Bacillus cereus MTCC 619 by paper disk diffusion method; assay type: functional
[15] = tested on: Bacillus cereus; test: Antimicrobial activity against Bacillus cereus MTCC 619 by agar streak dilution method; assay type: functional
[16] = tested on: Shigella flexneri; test: Antimicrobial activity against Shigella flexneri MTCC 1457 by paper disk diffusion method; assay type: functional
[17] = tested on: Pseudomonas aeruginosa; test: Antimicrobial activity against Pseudomonas aeruginosa MTCC 741 at 100 ug/ml by paper disk diffusion method; assay type: functional, organism-based
[18] = tested on: Aspergillus niger; test: Antimicrobial activity against Aspergillus niger MTCC 282 by agar streak dilution method; assay type: functional
[19] = tested on: Escherichia coli; test: Antimicrobial activity against Escherichia coli MTCC 739 by paper disk diffusion method; assay type: functional
[20] = tested on: Shigella flexneri; test: Antimicrobial activity against Shigella flexneri MTCC 1457 by agar streak dilution method; assay type: functional
[21] = tested on: Candida albicans; test: Antimicrobial activity against Candida albicans MTCC 183 by paper-disk diffusion method; assay type: functional
[22] = tested on: Staphylococcus aureus; test: Antimicrobial activity against Staphylococcus aureus MTCC 96 by agar streak dilution method; assay type: functional
[23] = tested on: Aspergillus fumigatus; test: Antimicrobial activity against Aspergillus fumigatus MTCC 343 by agar streak dilution method; assay type: functional
[24] = tested on: Escherichia coli; test: Antimicrobial activity against Escherichia coli MTCC 739 by agar streak dilution method; assay type: functional
[25] = tested on: Mycobacterium tuberculosis; test: Antimicrobial activity against Mycobacterium tuberculosis H37Rv by Lowenstein and Jensen method; assay type: functional; settings: for MIC: Mycobacterium tuberculosis, H37Rv
[26] = tested on: Aspergillus clavatus; test: Antimicrobial activity against Aspergillus clavatus MTCC 1323 by agar streak dilution method; assay type: functional
[27] = tested on: Pseudomonas aeruginosa; test: Antimicrobial activity against Pseudomonas aeruginosa MTCC 741 by paper disk diffusion method; assay type: functional
[28] = tested on: Salmonella typhi; test: Antimicrobial activity against Salmonella enterica subsp. enterica serovar Typhi MTCC 733 by agar streak dilution method; assay type: functional
[29] = tested on: Shigella flexneri; test: Antimicrobial activity against Shigella flexneri MTCC 1457 at 100 ug/ml by paper-disk diffusion method; assay type: functional, organism-based
[30] = tested on: Klebsiella pneumoniae; test: Antimicrobial activity against Klebsiella pneumoniae MTCC 109 at 100 ug/ml by paper disk diffusion method; assay type: functional, organism-based
[31] = tested on: Aspergillus fumigatus; test: Antimicrobial activity against Aspergillus fumigatus MTCC 343 at 100 ug/ml by paper-disk diffusion method; assay type: functional, organism-based
[32] = tested on: Aspergillus clavatus; test: Antimicrobial activity against Aspergillus clavatus MTCC 1323 at 100 ug/ml by paper disk diffusion method; assay type: functional, organism-based

Row | SMILES | MIC [1] [µg/mL] | inhibition zone (IZ) [2] [mm] | inhibition zone (IZ) [3] [mm] | MIC [4] [µg/mL] | inhibition zone (IZ) [5] [mm] | MIC [6] [µg/mL] | inhibition zone (IZ) [8] [mm] | MIC [10] [µg/mL] | inhibition [12] | inhibition zone (IZ) [14] [mm] | MIC [15] [µg/mL] | MIC [18] [µg/mL] | inhibition zone (IZ) [19] [mm] | inhibition zone (IZ) [21] [mm] | MIC [22] [µg/mL] | MIC [24] [µg/mL] | inhibition (percent inhibition) [25] [%] | MIC [25] [µg/mL] | inhibition zone (IZ) [27] [mm] | MIC [28] [µg/mL] | further results
1 | COc1ccc(N2CCN(c3nc(Nc4ccc(C#N)c(C(F)(F)F)c4)nc(Oc4ncnc5ccccc45)n3)CC2)cc1 | 12.5 (≈ 20.8 µM) | 27 | 25 | 12.5 (≈ 20.8 µM) | 25 | 6.25 (≈ 10.4 µM) | 26 | > 6.25 | inactive | 25 | 6.25 (≈ 10.4 µM) | 6.25 (≈ 10.4 µM) | 28 | 25 | 6.25 (≈ 10.4 µM) | 6.25 (≈ 10.4 µM) | 99 | 25 (≈ 41.7 µM) | 27 | 25 (≈ 41.7 µM) | inhibition zone (IZ) [7]: 25 mm; inhibition zone (IZ) [9]: 25 mm; MIC [11]: 12.5 µg/mL (≈ 20.8 µM); inhibition zone (IZ) [13]: 25 mm; inhibition zone (IZ) [16]: 23 mm; inhibition zone (IZ) [17]: inactive; MIC [20]: 50 µg/mL (≈ 83.4 µM); MIC [23]: 6.25 µg/mL (≈ 10.4 µM); MIC [26]: 6.25 µg/mL (≈ 10.4 µM)
2 | N#Cc1ccc(Nc2nc(Oc3ncnc4ccccc34)nc(N3CCN(C(c4ccccc4)c4ccccc4)CC3)n2)cc1C(F)(F)F | 100 (≈ 152 µM) | 25 | 23 | 50 (≈ 75.8 µM) | 21 | 100 (≈ 152 µM) | 21 | > 6.25 | inactive | 24 | 100 (≈ 152 µM) | 100 (≈ 152 µM) | 23 | 21 | 25 (≈ 37.9 µM) | 100 (≈ 152 µM) | 97 | 62.5 (≈ 94.7 µM) | 22 | 100 (≈ 152 µM) | inhibition zone (IZ) [29]: inactive; inhibition zone (IZ) [9]: 23 mm; inhibition zone (IZ) [13]: 21 mm; inhibition zone (IZ) [30]: inactive; MIC [23]: 100 µg/mL (≈ 152 µM); MIC [26]: 100 µg/mL (≈ 152 µM)
3 | N#Cc1ccc(Nc2nc(Oc3ncnc4ccccc34)nc(N3CCN(c4ncccn4)CC3)n2)cc1C(F)(F)F | 100 (≈ 175 µM) | 23 | 22 | 50 (≈ 87.5 µM) | 22 | 100 (≈ 175 µM) | 21 | > 6.25 | inactive | 25 | 50 (≈ 87.5 µM) | 100 (≈ 175 µM) | 23 | 22 | 25 (≈ 43.7 µM) | 100 (≈ 175 µM) | 96 | 200 (≈ 350 µM) | 22 | 50 (≈ 87.5 µM) | inhibition zone (IZ) [29]: inactive; inhibition zone (IZ) [7]: 20 mm; MIC [11]: 100 µg/mL (≈ 175 µM); inhibition zone (IZ) [31]: inactive; inhibition zone (IZ) [32]: inactive
